In patent US20040029965A1, “Formulations for reducing or eliminating toxicity of enviromental hormones containing ursodeoxycholic acid” (priority 2000, published 2004):

What was measured:
C57B1/6J mice [1] = test: Changes in body weight of mice after a single subcutaneous injection of TCDD; assay type: in vivo; conditions: for Weight (body weight): at sacrifice
Method: (§1) Male C57B1/6J mice of 5 weeks old having the average weight of 18-22 g which had been bred in CRJ (Charles River in Japan) were purchased and used in this example as experimental animals. Those mice were acclimated under the constant breeding condition, i.e. the temperature of 24±1° C., the humidity of 60±10% and the light and darkness cycle of 12 hours, for one week and thereafter, utilized in the experiment.
(§2) The Experimental animals were supplied with Purina powdered feed (purchased from Hae Eun Trade) and supplied with water ad libitum. All the animals were weighed twice a week during experimentation.
(§3) 2,3,7,8-tetrachlorodibenzo-p-dioxin (TCDD) dissolved in toluene (purity of 95% or more as a result of gas chromatography analysis), manufactured by Chem. Services Inc. in USA, was volatilized with nitrogen to obtain powder. The obtained powder was dissolved in a mixed solvent containing acetone and corn oil with a volume ratio of 1:6. The resulting solution each containing 110, 27.5 and 6.9 μg/kg of TCDD was subcutaneously injected to mice at a volume of 5 ml per body weight. […] The mice were supplied with the feed from 10 days before (pre-administration) to 60 days after administration of TCDD (post-administration).
(§4) The results are expressed as Mean±Standard Deviation values. For statistical analysis of the body weight, feed and water uptake, biochemical findings, hematological findings and the weight of organ in an acute toxicity test, verification was performed by one way analysis of variance (ANOVA) in case of equal distribution. In case significance was recognized in ANOVA, the Student's t-test was performed in the levels of p<0.05 and p<0.01.

C57B1/6J mice [2] = test: Water uptake of mice after a single subcutaneous injection of TCDD; assay type: in vivo; design: unit not given here
Method: as §1, §2, §3, §4

[3] = TCDD 110.0 μg/kg + UDCA 0.5 wt %, 50 days

In the case of `C[C@H](CCC(=O)O)[C@H]1CC[C@H]2[C@@H]3[C@@H](O)C[C@@H]4C[C@H](O)CC[C@]4(C)[C@H]3CC[C@]12C` [UDCA, 3α, 7β-dihydroxy-5β-cholanoic acid], the body weight (C57B1/6J mice [1]; TCDD 110.0 μg/kg + UDCA 0.125 wt %, 22 days) is reported as 18.44 ± 0.87, the body weight (C57B1/6J mice [1]; TCDD 110.0 μg/kg + UDCA 0.125 wt %, 32 days) is reported as 12.61 and the “Weight (body weight)” value (C57B1/6J mice [1]; TCDD 110.0 μg/kg + UDCA 0.125 wt %) is reported as 15.93 g. The body weight (C57B1/6J mice [1]; TCDD 110.0 μg/kg + UDCA 0.25 wt %, 0 day) was 19.65 ± 0.44, the body weight (C57B1/6J mice [1]; TCDD 110.0 μg/kg + UDCA 0.25 wt %, 12 days) was 20.64 ± 0.50 and the body weight (C57B1/6J mice [1]; TCDD 110.0 μg/kg + UDCA 0.25 wt %, 22 days) was 19.69 ± 1.03. For the same compound, the body weight (C57B1/6J mice [1]; TCDD 110.0 μg/kg + UDCA 0.25 wt %, 32 days) was 18.78 ± 1.14, the body weight (C57B1/6J mice [1]; TCDD 110.0 μg/kg + UDCA 0.25 wt %, 39 days) was 14.26 and the body weight (C57B1/6J mice [1]; TCDD 110.0 μg/kg + UDCA 0.25 wt %, 50 days) was 14.85. The body weight (C57B1/6J mice [1]; TCDD 110.0 μg/kg + UDCA 0.25 wt %, 59 days) was 17.10, the “Weight (body weight)” value (C57B1/6J mice [1]; TCDD 110.0 μg/kg + UDCA 0.25 wt %) was 18.53 ± 3.79 g and the body weight (C57B1/6J mice [1]; TCDD 110.0 μg/kg + UDCA 0.5 wt %, 0 day) was 19.71 ± 0.14. The body weight (C57B1/6J mice [1]; TCDD 110.0 μg/kg + UDCA 0.5 wt %, 12 days) was 20.52 ± 0.32, the body weight (C57B1/6J mice [1]; TCDD 110.0 μg/kg + UDCA 0.5 wt %, 22 days) was 21.15 ± 0.82 and the body weight (C57B1/6J mice [1]; TCDD 110.0 μg/kg + UDCA 0.5 wt %, 32 days) was 20.76 ± 1.04. The body weight (C57B1/6J mice [1]; TCDD 110.0 μg/kg + UDCA 0.5 wt %, 39 days) was 19.81 ± 1.37, the body weight (C57B1/6J mice [1]; [3]) was 18.19 ± 1.80 and the body weight (C57B1/6J mice [1]; TCDD 110.0 μg/kg + UDCA 0.5 wt %, 59 days) was 18.53 ± 1.59. For the same compound, the water uptake (C57B1/6J mice [2]; TCDD 6.9 μg/kg + UDCA 0.125 wt %, 10 days) was 4.54 ± 0.71, the water uptake (C57B1/6J mice [2]; TCDD 6.9 μg/kg + UDCA 0.125 wt %, 20 days) was 3.75 ± 0.90 and the water uptake (C57B1/6J mice [2]; TCDD 6.9 μg/kg + UDCA 0.125 wt %, 30 days) was 4.00 ± 0.00. The water uptake (C57B1/6J mice [2]; TCDD 6.9 μg/kg + UDCA 0.125 wt %, 40 days) was 4.00 ± 0.00, the water uptake (C57B1/6J mice [2]; TCDD 6.9 μg/kg + UDCA 0.125 wt %, 50 days) was 4.06 ± 1.34 and the water uptake (C57B1/6J mice [2]; TCDD 6.9 μg/kg + UDCA 0.125 wt %, 60 days) was 4.64 ± 0.51. It also gave a water uptake (C57B1/6J mice [2]; TCDD 6.9 μg/kg + UDCA 0.25 wt %, 10 days) of 4.27 ± 1.16, a water uptake (C57B1/6J mice [2]; TCDD 6.9 μg/kg + UDCA 0.25 wt %, 20 days) of 3.83 ± 1.04 and a water uptake (C57B1/6J mice [2]; TCDD 6.9 μg/kg + UDCA 0.25 wt %, 30 days) of 4.00 ± 0.00. For the same compound, the water uptake (C57B1/6J mice [2]; TCDD 6.9 μg/kg + UDCA 0.25 wt %, 40 days) was 3.60 ± 0.57, the water uptake (C57B1/6J mice [2]; TCDD 6.9 μg/kg + UDCA 0.25 wt %, 50 days) was 4.28 ± 1.02 and the water uptake (C57B1/6J mice [2]; TCDD 6.9 μg/kg + UDCA 0.25 wt %, 60 days) was 4.69 ± 0.43. It also gave a water uptake (C57B1/6J mice [2]; TCDD 6.9 μg/kg + UDCA 0.5 wt %, 10 days) of 4.12 ± 0.94, a water uptake (C57B1/6J mice [2]; TCDD 6.9 μg/kg + UDCA 0.5 wt %, 20 days) of 3.80 ± 0.70 and a water uptake (C57B1/6J mice [2]; TCDD 6.9 μg/kg + UDCA 0.5 wt %, 30 days) of 4.00 ± 0.63. The water uptake (C57B1/6J mice [2]; TCDD 6.9 μg/kg + UDCA 0.5 wt %, 40 days) was 3.78 ± 0.31, the water uptake (C57B1/6J mice [2]; TCDD 6.9 μg/kg + UDCA 0.5 wt %, 50 days) was 4.35 ± 1.08 and the water uptake (C57B1/6J mice [2]; TCDD 6.9 μg/kg + UDCA 0.5 wt %, 60 days) was 5.06 ± 0.70. For the same compound, the water uptake (C57B1/6J mice [2]; TCDD 27.5 μg/kg + UDCA 0.125 wt %, 10 days) was 3.67 ± 1.10, the water uptake (C57B1/6J mice [2]; TCDD 27.5 μg/kg + UDCA 0.125 wt %, 20 days) was 3.92 ± 1.13 and the water uptake (C57B1/6J mice [2]; TCDD 27.5 μg/kg + UDCA 0.125 wt %, 30 days) was 4.30 ± 0.42. The water uptake (C57B1/6J mice [2]; TCDD 27.5 μg/kg + UDCA 0.125 wt %, 40 days) was 4.20 ± 0.28, the water uptake (C57B1/6J mice [2]; TCDD 27.5 μg/kg + UDCA 0.125 wt %, 50 days) was 4.44 ± 0.79 and the water uptake (C57B1/6J mice [2]; TCDD 27.5 μg/kg + UDCA 0.125 wt %, 60 days) was 4.81 ± 0.26. The water uptake (C57B1/6J mice [2]; TCDD 27.5 μg/kg + UDCA 0.25 wt %, 10 days) was 4.04 ± 0.75, the water uptake (C57B1/6J mice [2]; TCDD 27.5 μg/kg + UDCA 0.25 wt %, 20 days) was 3.92 ± 0.63 and the water uptake (C57B1/6J mice [2]; TCDD 27.5 μg/kg + UDCA 0.25 wt %, 30 days) was 4.00 ± 0.00. For the same compound, the water uptake (C57B1/6J mice [2]; TCDD 27.5 μg/kg + UDCA 0.25 wt %, 40 days) was 4.00 ± 0.00, the water uptake (C57B1/6J mice [2]; TCDD 27.5 μg/kg + UDCA 0.25 wt %, 50 days) was 4.44 ± 0.79 and the water uptake (C57B1/6J mice [2]; TCDD 27.5 μg/kg + UDCA 0.25 wt %, 60 days) was 4.81 ± 0.26. It also gave a water uptake (C57B1/6J mice [2]; TCDD 27.5 μg/kg + UDCA 0.5 wt %, 10 days) of 3.91 ± 0.95, a water uptake (C57B1/6J mice [2]; TCDD 27.5 μg/kg + UDCA 0.5 wt %, 20 days) of 4.35 ± 0.98 and a water uptake (C57B1/6J mice [2]; TCDD 27.5 μg/kg + UDCA 0.5 wt %, 30 days) of 4.44 ± 0.00. It also gave a water uptake (C57B1/6J mice [2]; TCDD 27.5 μg/kg + UDCA 0.5 wt %, 40 days) of 4.44 ± 0.00, a water uptake (C57B1/6J mice [2]; TCDD 27.5 μg/kg + UDCA 0.5 wt %, 50 days) of 4.41 ± 1.00 and a water uptake (C57B1/6J mice [2]; TCDD 27.5 μg/kg + UDCA 0.5 wt %, 60 days) of 4.88 ± 0.33. It also gave a water uptake (C57B1/6J mice [2]; TCDD 110.0 μg/kg + UDCA 0.125 wt %, 10 days) of 4.03 ± 1.21, a water uptake (C57B1/6J mice [2]; TCDD 110.0 μg/kg + UDCA 0.125 wt %, 20 days) of 4.07 ± 0.64 and a water uptake (C57B1/6J mice [2]; TCDD 110.0 μg/kg + UDCA 0.125 wt %, 30 days) of 3.33 ± 0.94. For the same compound, the water uptake (C57B1/6J mice [2]; TCDD 110.0 μg/kg + UDCA 0.25 wt %, 10 days) was 3.79 ± 1.06, the water uptake (C57B1/6J mice [2]; TCDD 110.0 μg/kg + UDCA 0.25 wt %, 20 days) was 3.83 ± 0.14 and the water uptake (C57B1/6J mice [2]; TCDD 110.0 μg/kg + UDCA 0.25 wt %, 30 days) was 4.67 ± 0.94. For the same compound, the water uptake (C57B1/6J mice [2]; TCDD 110.0 μg/kg + UDCA 0.25 wt %, 40 days) was 4.14 ± 0.20, the water uptake (C57B1/6J mice [2]; TCDD 110.0 μg/kg + UDCA 0.5 wt %, 10 days) was 3.75 ± 0.50 and the water uptake (C57B1/6J mice [2]; TCDD 110.0 μg/kg + UDCA 0.5 wt %, 20 days) was 3.42 ± 0.80. For the same compound, the water uptake (C57B1/6J mice [2]; TCDD 110.0 μg/kg + UDCA 0.5 wt %, 30 days) was 4.20 ± 0.28, the water uptake (C57B1/6J mice [2]; TCDD 110.0 μg/kg + UDCA 0.5 wt %, 40 days) was 3.50 ± 0.71 and the water uptake (C57B1/6J mice [2]; [3]) was 3.14 ± 0.59. The water uptake (C57B1/6J mice [2]; TCDD 110.0 μg/kg + UDCA 0.5 wt %, 60 days) was 3.32 ± 0.33.
